# Test results published in patent publication US20080188549A1, “Composition for Preventing and/or Treating Metabolic Syndrome and Insulin Resistance Syndrome” (Kaneka Corporation, priority 2005, published 2008).
# Molecular target: T1, PPARγ (Mus musculus, UniProt P37238)
# T1 construct: GAL4 (yeast transcription factor, amino acids 1 to 147); expressed in transfected cells; host or cells: CV-1 cells (African green monkey kidney)
# T1 sequence (P37238 174-475 isoform P37238-2): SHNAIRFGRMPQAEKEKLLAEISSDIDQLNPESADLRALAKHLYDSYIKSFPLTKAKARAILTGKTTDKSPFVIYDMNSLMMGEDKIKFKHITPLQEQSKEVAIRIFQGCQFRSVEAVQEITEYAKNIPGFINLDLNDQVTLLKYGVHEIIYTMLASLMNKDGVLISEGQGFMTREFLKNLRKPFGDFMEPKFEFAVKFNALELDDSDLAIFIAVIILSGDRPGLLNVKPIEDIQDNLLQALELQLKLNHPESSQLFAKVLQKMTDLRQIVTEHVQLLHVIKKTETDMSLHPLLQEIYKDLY
# Assay: PPARγ ligand activity measurement (GAL4-mPPARγ chimera luciferase reporter assay in CV-1 cells)
# Type: cell-based
# Conditions: for Specific activity (PPARγ ligand activity relative to no-treatment control): CV-1 cells, 24 hours, n=4, 1.5 or above = having PPARγ ligand activity; for PPARγ ligand activity comparison with troglitazone: compared with troglitazone at 0.5 μM, compounds at the concentrations of Table 2
# Experimental: CV-1 cells (male African green monkey kidney-derived cultured cells) were distributed into wells of a 96-well culture plate (6×10^3 cells/well) and cultured under conditions of 37° C. and 5% CO2 for 24 hours. The medium used was DMEM (Dulbecco's modified Eagle medium; GIBCO) containing 10% FBS (fetal bovine serum), 10 ml/L of penicillin-streptomycin solution (5,000 IU/ml and 5,000 μg/ml, respectively; GIBCO) and 37 mg/L of ascorbic acid (Wako Pure Chemical Industries). After rinsing with OPTI-MEM (GIBCO), the cells were transfected with pM-mPPARγ and 4×UASg-luc using Lipofectamine Plus (GIBCO). […] Each sample in the assay group was dissolved in dimethyl sulfoxide (DMSO), and DMSO was used in the no-treatment control group. The solution or DMSO was added to the medium at a level of 1/1000. After washing the cells with Ca- and Mg-containing phosphate buffered saline (PBS^+), LucLite (Packard) was added to each well, and the luciferase-due luminescence intensity was measured using Packard's TopCount microplate scintillation/luminescence counter. Using pM (plasmid deprived of the PPARγ ligand binding site gene) in lieu of pM-mPPARγ, measurements in a control group were carried out in the same manner as in the above assay group. For each sample, the ratio in mean luminescence intensity (n=4) between the assay group and control group (assay group/control group ratio) was calculated, and the specific activity relative to the no-treatment control group was regarded as the PPARγ ligand activity of the sample. When the specific activity was 1.5 or above, the sample was evaluated as having PPARγ ligand activity.
SMILES,Specific activity (PPARγ ligand activity relative to no-treatment control) (10 μg/ml),PPARγ ligand activity comparison with troglitazone,Specific activity (PPARγ ligand activity relative to no-treatment control) (20 μg/ml)
"COc1c(/C=C/C(=O)c2cc(O)c(O)c(CC=C(C)C)c2)ccc(O)c1O [Compound 1, 3,4,3′,4′-tetrahydroxy-2-methoxy-5′-γ,γ-dimethylallylchalcone]",3.58,stronger in PPARγ ligand activity as compared with troglitazone,
"CC(C)=CCc1cc([C@@H]2CC(=O)c3ccc4c(c3O2)C=CC(C)(C)O4)ccc1O [Compound 2, shinflavanone]",3.62,stronger in PPARγ ligand activity as compared with troglitazone,
"COc1ccc(C2(O)COc3c(ccc4c3C=CC(C)(C)O4)C2=O)c(O)c1 (stereo not drawn) [Compound 3, 3,2′-dihydroxy-4′-methoxy-6″,6″-dimethylpyrano[2″,3″:7,8] isoflavanone]",,stronger in PPARγ ligand activity as compared with troglitazone,1.90
